“Also recorded” adds a separate entry of the source.
Legend:
Format in all cases: in vivo
[1] = Adverse effects / general health, mouse hind-limb ischemia study; details: 10 or 30 mg/kg s.c., up to day 35
Description: The collective data of the study confirmed the therapeutic efficacy of dextran sulfate given s.c. for the treatment of occlusive peripheral arterial disease in the Balb/c mouse animal model.
No adverse effect on general health was recorded in any of the groups. […] The findings reflect changes in blood vessel morphology, i.e. capillaries density increase, and blood vessels angiogenesis.

[2] = test system: rat model of myocardial infarction; assay: Infarct size (Masson's trichrome), rat myocardial infarction model; details: 35 days after MI induction
Description: The myocardial infarction model in rat involved ligations of the left coronary artery permanently with an intramural stitch. The surgery caused obstruction of the blood flow and subsequently to severe ischemic damage and cardiac walls infarct.
On the day of surgery the animals were anesthetized with a combination of 90 mg/kg ketamine and 10 mg/kg xylazine. In order to induce MI, under anesthesia and analgesia, the rat chest was opened by left thoracotomy, the pericardium was removed and the proximal left coronary artery was permanently occluyded with an intramural stitch (Circulation 117, 1388-1396 (2008)). Two hours post surgery, each animal in all treated groups were injected s.c. with dextran sulfate or saline vehicle according to Table 11.
On day 36 after MI induction, the rats were sacrificed by CO2 inhalation and the hearts were harvested and fixed in 4% buffered Formalin solution. […]
For the purpose of MI size identification, Masson's Trichrome Staining was used. […] The sections were visualized in a computer-imaging system and infarct size was marked and calculated using the ImageJ program. Infarct size was expressed as percentage of infarct area (unstained) versus the total left ventricle area. For each animal, five serial sections including one containing the ligature were analyzed and the mean value of all sections for each heart was calculated. […]

[3] = test system: Rat Hind-Limb Ischemia Model; assay: Ischemic severity (necrosis grades), rat hind-limb ischemia; details: all groups incl. vehicle; Day 7 up to Day 28
Description: The femoral artery and vein were ligated twice with 4-0 silk thread and transected between the ligatures. The wound was closed with 3-0 silk thread and the rats were allowed to recover.
(§1) Animals in group 4M and 5M were injected s.c. once on Day 8, see Table 12.

tMCAO rat-stroke model [4] = assay: Cerebral blood flow assessment (Flow-R Laser Doppler), tMCAO rat; details: day 29
Description: (§2) Transient middle cerebral artery occlusion was performed according to the method previously described in Stroke 29, 2162-2170 (1998). The right common carotid artery (CCA) was exposed through a midline neck incision and carefully dissected free from surrounding nerves and fascia—from its bifurcation to the base of the skull. The occipital artery branches of the external carotid artery (ECA) were then isolated, and these branches were dissected and coagulated. The ECA was dissected further distally and coagulated along with the terminal lingual and maxillary artery branches, which was then divided. The internal carotid artery (ICA) was isolated and carefully separated from the adjacent vagus nerve, and the pterygopalatine artery was ligated close to its origin with a 5-0 nylon suture (SMI, Belgium). Next a 4-0 silk suture was tied loosely around the mobilized ECA stump, and a 4 cm length of 4-0 monofilament nylon suture (the tip of the suture was blunted by using a flame, and the suture was coated with polylysine, prior to insertion) was inserted through the proximal ECA into the ICA and thence into the circle of Willis, effectively occluding the MCA. […]
Evaluation of the blood flow on the brain cortex and vessel constriction was carried out using Flow-R Laser Doppler system, in which intracranial blood flow and vessels diameter (constriction/dilatation) was monitored. […]

[5] = test system: Rat Hind-Limb Ischemia Model; assay: Angiography analysis, rat hind-limb ischemia; details: 28 days after induction of hind-limb ischemia; p<0.01 and p<0.001
Description: The number of intersections between contrast-filled vessels was determined by image analysis 28 days after induction of hind-limb ischemia.

[6] = Mortality and clinical signs, tMCAO rat study; details: for Rats that died within 10 hours after dosing: vehicle group 1M: 6
Description: Started two hours after occlusion (immediately after reperfusion), animals in groups 2M and 3M (dextran sulfate at doses of 30 mg/kg three times a week or 15 mg/kg daily) and animals in group 1M (vehicle control) were injected subcutaneously, see Table 10.
Eighteen rats died during the study. One rat died just after reperfusion before dosing, and seventeen rats within 10 hours after dosing (6 in group 1M, 6 in group 2M and 5 in group 3M).

[7] = Adverse effects, rat hind-limb ischemia study; details: 30 and 3 mg/kg s.c., 3 times a week or single dose
Description: as §1
In the present study blood flow improvement in the rat hind-limb ischemia model was examined in order to evaluate the efficacy of dextran sulfate in two different doses and treatment regimes. […] Both doses and administration regimens were efficacious. No spontaneous amputations or toe necrosis occurred in any of the treated or control animal groups. […] Collectively the data of this study confirmed the therapeutic efficacy of dextran sulfate for the treatment of occlusive peripheral arterial disease in the rat hind-limb ischemia model.

tMCAO rat-stroke model [8] = assay: Body swing test, tMCAO rat; details: all treated rats; day 7 up to day 28
Description: as §2, with “Belgium).” for “Belgium). Next a 4-0 silk suture was tied loosely around the mobilized ECA stump, and a 4 cm length of 4-0 monofilament nylon suture (the tip of the suture was blunted by using a flame, and the suture was coated with polylysine, prior to insertion) was inserted through the proximal ECA into the ICA and thence into the circle of Willis, effectively occluding the MCA.”
The rat was held approximately one inch from the base of its tail. […] A swing was recorded whenever the rat moves its head out of the vertical axis to either side. Before attempting another swing, the rat was returned to the vertical position for the next swing to be counted. Twenty total swings were counted. […] Body swing scores were expressed as a percentage of rightward over total swings. […]

Dextran sulfate
Adverse effects in the treated animals [1]: did not cause any adverse effects
Infarct size / infarct volume, treatment group 2M vs control group 1M ([2]; 15 mg/kg s.c. 3 times a week for 3 weeks): significant difference; also recorded: significantly decreased the infarct volume
Average infarct size compared to untreated control group ([2]; all treatment groups (15 or 3 mg/kg s.c.)): smaller average infarct size
Toe necrosis or foot amputation [3]: no toe necrosis or foot amputation was found
Vessels diameter ratio versus control (tMCAO rat-stroke model [4]): increased
Cerebral blood perfusion rate versus control vehicle-treated group (tMCAO rat-stroke model [4]; groups 2M and 3M, damaged hemisphere): Statistically significant improvement
Angiography: collaterals in affected limb vs vehicle control [5]: significantly large numbers of collaterals
Adverse clinical signs ([6]; all animal groups): No adverse clinical signs unrelated to the model
Rats that died within 10 hours after dosing ([6]; group 2M, 30 mg/kg s.c. 3 times a week): 6 rats
Rats that died within 10 hours after dosing ([6]; group 3M, 15 mg/kg s.c. daily): 5 rats
Adverse effects in the treated animals [7]: did not cause any adverse effects
Body swing test compared to vehicle control (tMCAO rat-stroke model [8]): statistically significant improvement
